# Data reported in patent US3946000A, “7-[α-(2-Aminomethyl-1-cyclohexenyl)-acetamido]-3-heterocyclic thiomethyl-3-cephem-4-carboxylic acids” (Bristol-Myers Company, priority 1973, dated 1976).
# Several values for one entry are separate records, joined by “and”; a condition that tells them apart may be missing. Equal values may be shown once. Read-outs that look alike come from different tables or passages of the source.
# What was measured:
# [1] = Solubility in 0.1 M pH 7.0 phosphate buffer (bioassay and UV-assay); assay type: physicochemical; conditions: for solubility at 4 h: 0.1 m phosphate buffer, pH 7, aqueous buffer
# Protocol: *Stirred at 25° C. for 4 hours in 0.1 M pH 7.0 phosphate
# buffer--filtered through Milipore filter (0.45 μ)--assayed
# spectroscopically against its own standard.
# The test solution and the standard solution are prepared as described below.
# About 10 mg. (1) of a sample is placed in a vial and mixed with 1 ml. of 0.1 M phosphate buffer (pH 7.0). The vial is stoppered, sealed with a metal cap, placed on a rotary shaker and agitated at 160 rpm for 4 hr. at 25° C. The solution is filtered through a Millipore filter (HAWP 01300, mean pore size 0.45 μm). The filtrate is diluted to use for bioassay and UV assay as follows:
# About 2 mg. of the same sample is weighed precisely and dissolved in 4 ml. of 1% K2 CO3 solution^(3) (usually within one minute). The solution is diluted exactly to 50 ml. in a flask with 0.1 M pH 7.0 phosphate buffer and used for the preparation of the standard solutions for bioassay and UV-assay as follows:
# (1) A 20 mg. or more sample is used when the sample is expected to be more soluble.
# (2) 0.1 M pH 7.0 phosphate buffer is used as a diluent in the present test and also as a reference solution in UV-assay.
# (3) It was previously confirmed that almost the same result is obtained when the sample is solubilized in DMSO (dimethylsulfoxide) and then diluted similarily with the buffer.
# (4) Volume of the solution is measured precisely with an appropriate pipette or flask.
# BA: Bioassay, UV: UV-assay Results given for the same compound on different lines were obtained using samples from different lots.
# [2] = test system: Ser. marcescens A20019; assay: M.I.C. by Tube Dilution, Ser. marcescens A20019; assay type: cell-based; conditions: Serratia marcescens, 10^-4 dilution, overnight at 37° C.
# [3] = test system: S. aureus BX1633 A9606; assay: M.I.C. by Tube Dilution, S. aureus BX1633 A9606; assay type: cell-based; conditions: Nutrient Broth, overnight at 37° C.; for MIC: Staphylococcus aureus, BX1633A9606, S. aureus BX1633 A9606
# [4] = test system: Pr. mirabilis A9900; assay: M.I.C. by Tube Dilution, Pr. mirabilis A9900; assay type: cell-based; conditions: Proteus mirabilis, 10^-4 dilution, overnight at 37° C.
# [5] = test system: Mycobacterium 607; assay: M.I.C. by Tube Dilution, Mycobacterium 607; assay type: cell-based; conditions: overnight at 37° C.
# [6] = test system: E. coli Juhl A15119; assay: M.I.C. by Tube Dilution, E. coli Juhl A15119; assay type: cell-based; conditions: Escherichia coli, JUHLA15119, 10^-4 dilution, overnight at 37° C.
# [7] = test system: K. pneumoniae A9977; assay: M.I.C. by Tube Dilution, K. pneumoniae A9977; assay type: cell-based; conditions: Klebsiella pneumoniae, 10^-4 dilution, overnight at 37° C.
# [8] = test system: Str. pyogenes A9604; assay: M.I.C. by Tube Dilution, Str. pyogenes A9604; assay type: cell-based; conditions: Streptococcus pyogenes; Str. pyogenes A9604 + 5% serum; 50% Nutrient Broth - 45% Antibiotic Assay Broth; overnight at 37° C.
# [9] = test system: E coli Juhl; assay: Minimum curative dose in infected mice, E coli Juhl; assay type: in vivo; conditions: Mus musculus, sc; subcutaneous, mice infected with lethal dose of E coli Juhl; read-out: CD50 (minimum curative dose for 50% of the mice)
# [10] = test system: E. coli ATCC 8739; assay: M.I.C. by Tube Dilution, E. coli ATCC 8739; assay type: cell-based; conditions: Escherichia coli, ATCC8739, overnight at 37° C.
# [11] = test system: S. aureus Russel; assay: M.I.C. by Tube Dilution, S. aureus Russel; assay type: cell-based; conditions: Nutrient Broth, overnight at 37° C.; for MIC: Staphylococcus aureus
# [12] = test system: Pr. morganii A15153; assay: M.I.C. by Tube Dilution, Pr. morganii A15153; assay type: cell-based; conditions: Morganella morganii, 10^-4 dilution, overnight at 37° C.
# [13] = test system: E. coli NIHJ; assay: M.I.C. by Tube Dilution, E. coli NIHJ; assay type: cell-based; conditions: Escherichia coli, overnight at 37° C.
# [14] = test system: Ps. aeruginosa A9843; assay: M.I.C. by Tube Dilution, Ps. aeruginosa A9843; assay type: cell-based; conditions: Pseudomonas aeruginosa, 10^-4 dilution, overnight at 37° C.
# [15] = test system: S. aureus Smith A9537; assay: M.I.C. by Tube Dilution, S. aureus Smith A9537; assay type: cell-based; conditions: Staphylococcus aureus, 10^-4 dilution, overnight at 37° C.
# [16] = test system: K. pneumoniae A15130; assay: M.I.C. by Tube Dilution, K. pneumoniae A15130; assay type: cell-based; conditions: Klebsiella pneumoniae, 10^-4 dilution, overnight at 37° C.
# [17] = test system: D. pneumoniae A9585; assay: M.I.C. by Tube Dilution, D. pneumoniae A9585; assay type: cell-based; conditions: Streptococcus pneumoniae, A9585, D. pneumoniae A9585 + 5% serum; 50% Nutrient Broth - 45% Antibiotic Assay Broth; overnight at 37° C.
# [18] = test system: S. aureus BX-1633; assay: Minimum curative dose in infected mice, S. aureus BX-1633; assay type: in vivo; conditions: Staphylococcus aureus, BX1633, sc; subcutaneous, mice infected with lethal dose of S. aureus BX-1633; read-out: CD50 (minimum curative dose for 50% of the mice)
# [19] = test system: Sal. enteritidis A9531; assay: M.I.C. by Tube Dilution, Sal. enteritidis A9531; assay type: cell-based; conditions: Salmonella enterica, 10^-4 dilution, overnight at 37° C.
# [20] = Water solubility; assay type: physicochemical; conditions: sodium salt
# [21] = 0.1 M phosphate buffer (pH 7.0), 4 hr. at 25° C., UV-assay, read-out: Solubility, UV (UV-assay)
# [22] = 0.1 M phosphate buffer (pH 7.0), 4 hr. at 25° C., bioassay, read-out: Solubility, BA (bioassay)
# [23] = stirred at 25° C. for 4 hours in 0.1 M pH 7.0 phosphate buffer, assayed spectroscopically against its own standard, read-out: Solubility
# [24] = 0.1 M phosphate buffer (pH 7.0), 4 hr. at 25° C., UV-assay, 240 min
# [25] = SMITHA9537, S. aureus Smith A9537 + 50% serum
# [26] = SMITHA9537, S. aureus Smith A9537, Nutrient Broth
# [27] = UV-assay, read-out: Solubility (UV)
# [28] = bioassay, read-out: Solubility (BA)
structure (smiles),measurement,setting,value
"NCc1ccccc1CC(=O)NC1C(=O)N2C(C(=O)O)=C(CSc3ccc(O)nn3)CSC12 (centres unmarked) [BB-S150, reference compound]",solubility at 4 h,[1]; [21],4.4 mg/mL
same,solubility at 4 h,[1]; [22],4.4 mg/mL
same,solubility at 4 h,[1]; [23],4.4 mg/mL
"NCc1ccccc1CC(=O)NC1C(=O)N2C(C(=O)O)=C(CSc3ccc4nnc(O)n4n3)CSC12 (centres unmarked) [BB-S207, reference compound]","Solubility, UV (UV-assay)",[1]; [24],3.6 mg/mL
same,solubility at 4 h,[1]; [21],3.9 mg/mL
same,solubility at 4 h,[1]; [22],4.2 mg/mL
same,solubility at 4 h,[1]; [23],3.6 mg/mL
"NCc1ccccc1CC(=O)NC1C(=O)N2C(C(=O)O)=C(CSc3ccc4nnnn4n3)CSC12 (centres unmarked) [BB-S226, reference compound]","Solubility, UV (UV-assay)",[1]; [24],2.1 mg/mL and 3.5 mg/mL and 2.2 mg/mL
same,solubility at 4 h,[1]; [21],2.5 mg/mL
same,solubility at 4 h,[1]; [22],3.8 mg/mL
same,solubility at 4 h,[1]; [23],3.5 mg/mL
"NCC1=C(CC(=O)NC2C(=O)N3C(C(=O)O)=C(CSc4ccc(O)nn4)CS[C@H]23)CCCC1 (stereo partly drawn) [Example 1, 7-[α-(2-aminomethyl-1-cyclohexenyl)acetamido]-3-(6-hydroxypyridazin-3-ylthiomethyl)-3-cephem-4-carboxylic acid]",solubility at 4 h,[1]; [21],16 mg/mL
same,solubility at 4 h,[1]; [22],16.8 mg/mL
same,solubility at 4 h,[1]; [23],16 to 16.8 mg/mL
"NCC1=C(CC(=O)NC2C(=O)N3C(C(=O)O)=C(CSc4ccc5nnnn5n4)CSC23)CCCC1 (stereo not drawn) [Example 2, 7-[α-(2-aminomethyl-1-cyclohexenyl)acetamido]-3-(pyradazino[2,3-d]tetrazol-6-ylthiomethyl)-3-cephem-4-carboxylic acid]",solubility at 4 h,[1]; [21],3 mg/mL
same,solubility at 4 h,[1]; [22],3 mg/mL
same,solubility at 4 h,[1]; [23],3 mg/mL
"Cn1nnnc1SCC1=C(C(=O)O)N2C(=O)C(NC(=O)CC3=C(CN)CCCC3)[C@H]2SC1 (some centres unmarked) [Example 3, 7-[(2-aminomethyl-1-cyclohexen-1-yl)acetamido]-3-(1-methyltetrazol-5-ylthiomethyl)-3-cephem-4-carboxylic acid]",MIC,[2],> 100 mg/L
same,MIC,[3],1.6 mg/L
same,MIC,[4],100 mg/L
same,MIC,[5],> 100 mg/L
same,MIC,[6],3.1 to 6.3 mg/L
same,MIC,[7],0.8 to 3.1 mg/L
same,MIC,[8],0.04 to 0.08 mg/L
same,ED50,[9],5.4 mg/kg
same,MIC,[10],3.1 to 6.3 mg/L
same,"Solubility, UV (UV-assay)","[1]; 0.1 M phosphate buffer (pH 7.0), 4 hr. at 25° C., UV-assay, listed as BB-S336, 240 min",26.0 mg/mL
same,"Solubility, BA (bioassay)","[1]; 0.1 M phosphate buffer (pH 7.0), 4 hr. at 25° C., bioassay, listed as BB-S336, 240 min",23.0 mg/mL
same,solubility at 4 h,[1]; [21],24.6 mg/mL
same,solubility at 4 h,[1]; [22],25.6 mg/mL
same,solubility at 4 h,[1]; [23],23 to 26 mg/mL
same,MIC,[11],0.4 to 0.8 mg/L
same,MIC,[12],> 100 mg/L
same,MIC,[13],1.6 to 3.1 mg/L
same,MIC,[14],> 100 mg/L
same,MIC,[15]; [25],0.8 to 1.6 mg/L
same,MIC,[15]; [26],0.2 to 0.4 mg/L
same,MIC,[16],3.1 to 6.3 mg/L
same,MIC,[17],0.04 to 0.08 mg/L
same,ED50,[18],2.4 mg/kg
same,MIC,[19],1.6 to 3.1 mg/L
"Cc1nnc(SCC2=C(C(=O)O)N3C(=O)C(NC(=O)CC4=C(CN)CCCC4)[C@H]3SC2)s1 (stereo partly drawn) [Example 4, 7-[α-(2-aminomethyl-1-cyclohexenyl)acetamido]-3-(5-methyl-1,3,4-thiadiazol-2-ylthiomethyl)-3-cephem-4-carboxylic acid]",solubility at 4 h,[1]; [21],4.6 mg/mL
same,solubility at 4 h,[1]; [22],4.3 mg/mL
same,solubility at 4 h,[1]; [23],4.3 to 4.6 mg/mL
"NCC1=C(CC(=O)NC2C(=O)N3C(C(=O)O)=C(CSc4ccc5nnc(O)n5n4)CSC23)CCCC1 (stereo not drawn) [Example 5, 7-[α-(2-Aminomethyl-1-cyclohexenyl)acetamido]-3-(3-hydroxypyridazino-[3,2-c]-3-triazol-6-ylthiomethyl)-3-cephem-4-carboxylic acid]",solubility at 4 h,[1]; [21],8.1 mg/mL
same,solubility at 4 h,[1]; [22],8 mg/mL
same,solubility at 4 h,[1]; [23],8 mg/mL
Cn1nnnc1SCC1=C(C(=O)O)N2C(=O)C(NC(=O)CC3=C(CN)CCCC3)C2SC1 (centres unmarked) [Example 15],solubility,[20],> 250 mg/mL
"CC(=O)OCC1=C(C(=O)O)N2C(=O)C(NC(=O)CC3=C(CN)CCCC3)C2SC1 (stereo not drawn) [Example 16, 7-[α-(2-Aminomethy-1-cyclohexenyl)acetamido]cephalosporanic acid]",MIC,[2],> 100 mg/L
same,MIC,[3],3.1 mg/L
same,MIC,[4],50 mg/L
same,MIC,[5],> 100 mg/L
same,MIC,[6],25 mg/L
same,MIC,[7],12.5 to 25 mg/L
same,MIC,[10],25 mg/L
same,solubility at 4 h,[1]; [27],5.3 mg/mL
same,solubility at 4 h,[1]; [28],5.4 mg/mL
same,MIC,[11],0.8 to 1.6 mg/L
same,MIC,[12],> 100 mg/L
same,MIC,[13],25 to 50 mg/L
same,MIC,[14],> 100 mg/L
same,MIC,[15]; [25],3.1 mg/L
same,MIC,[15]; [26],0.8 mg/L
same,MIC,[16],12.5 to 50 mg/L
same,MIC,[17],0.16 to 0.31 mg/L
same,MIC,[19],12.5 mg/L
"CC1=C(C(=O)O)N2C(=O)C(NC(=O)CC3=C(CN)CCCC3)C2SC1 (stereo not drawn) [Example 17, 7-[α-(2-Aminomethyl-1-cyclohexenyl)acetamido]desacetoxycephalosporanic acid]",MIC,[2],> 100 mg/L
same,M.I.C.,"[3]; S. aureus BX1633 A9606, listed as 6x",25 Mcg./ml.
same,MIC,[3],> 12.5 mg/L
same,MIC,[4],> 100 mg/L
same,MIC,[5],> 100 mg/L
same,MIC,[6],> 100 mg/L
same,MIC,[7],> 100 mg/L
same,MIC,[8],1.25 to 2.5 mg/L
same,MIC,[10],> 100 mg/L
same,solubility at 4 h,[1]; [27],3.3 mg/mL
same,solubility at 4 h,[1]; [28],4.1 mg/mL
same,M.I.C.,[11]; listed as 6x,12.5 Mcg./ml.
same,MIC,[11],> 12.5 mg/L
same,MIC,[12],> 100 mg/L
same,MIC,[13],> 100 mg/L
same,MIC,[14],> 100 mg/L
same,MIC,[16],> 100 mg/L
same,MIC,[19],> 100 mg/L
"Cn1nnnc1SCC1=C(C(=O)O)N2C(=O)C(NC(=O)Cc3ccccc3CN)C2SC1 (centres unmarked) [MR-S94, reference compound]",ED50,[9],4.4 mg/kg
same,solubility at 4 h,[1]; [21],1.9 mg/mL
same,solubility at 4 h,[1]; [22],2 mg/mL
same,solubility at 4 h,[1]; [23],1.9 mg/mL
same,ED50,[18],3.4 mg/kg
"Cc1nnc(SCC2=C(C(=O)O)N3C(=O)C(NC(=O)Cc4ccccc4CN)C3SC2)s1 (centres unmarked) [MR-S96, reference compound]",solubility at 4 h,[1]; [21],0.9 mg/mL
same,solubility at 4 h,[1]; [22],1.2 mg/mL
same,solubility at 4 h,[1]; [23],0.9 mg/mL
